Patent publication US7262289B2, “KCNQ potassium channels and methods of modulating same” (Bristol-Myers Squibb Co., priority 1997, dated 2007)
Read-outs that look alike come from different tables or passages of the source.

Columns and labels:
KCNQ1/KvLQT1 [1] = molecular target: T1, KCNQ1/KvLQT1 (Homo sapiens, UniProt P51787); conditions: from Yang et al. (1997); cited from earlier work
KCNQ3 = molecular target: T2, KCNQ3 (Homo sapiens, UniProt O43525); type: cell-based
T2 construct: The full-length human KCNQ2 and KCNQ3 cDNAs were subcloned into a Xenopus expression vector and cRNA was generated by in vitro transcription; expressed in transfected cells; host or cells: Xenopus laevis oocytes (cRNA injection)
Experimental: FIGS. 18A-18D show the functional characterization of KCNQ3 currents. […] Currents were recorded using the protocol in FIG. 18A. […] Each value is the mean±SEM from 6 oocytes. […] Superimposed currents were recorded during 1 sec steps to +20 mV, from −80 mV, during the same experiment. Compounds were applied via bath perfusion in order from top to bottom. The bath was perfused with control solution for 5 min, or until effects reversed completely, between compounds.
(§1) Stage V and VI Xenopus laevis oocytes were defolliculated with collagenase treatment and injected with cRNAs, as described in Yang et al., supra. Currents were recorded at room temperature using the two-microelectrode voltage clamp (Dagan TEV-200) technique between 3-5 days after injection of KCNQ2 (15 ng), KCNQ3 (15 ng), or KCNE1 (2 ng) cRNA alone or in combination. Microelectrodes (0.8 to 1.5 MΩ) were filled with 3 M KCl . Bath solution contained (in mM): 96 NaCl, 2 KCl , 0.4-1.8 CaCl2, 1-2 MgCl2 and 5 HEPES (pH 7.5). KCl was varied in some experiments by equimolar substitution with NaCl.
(§2) Axoclamp (Axon Instruments) was used for generating voltage clamp commands and acquiring data and Axograph 3.0 (Axon Instruments) was used for data analysis. All data was sampled at rates at least two times the low pass filter rate. Experiments were performed at 22-25° C.

KCNQ2+KCNQ3 = molecular target: T3, KCNQ2+KCNQ3 (Homo sapiens, UniProt O43525+O43526, DEL509-509/N780T); type: cell-based
T3 construct: The full-length cDNAs were subcloned into a Xenopus expression vector, derived from pSP64T plasmid; expressed in transfected cells; host or cells: Xenopus laevis oocytes (co-injection of cRNAs)
Experimental: FIGS. 19A-19F show co-expression of KCNQ2 and KCNQ3. […] Currents were recorded using the protocol in FIGS. 19A-19C. […] The dashed line has a slope predicted by the Nernst equation for a perfectly selective K^+ channel. Each value is the mean±SEM from 6 oocytes. […] Superimposed currents were recorded during 1 sec steps to +20 mV, from […], during the same experiment. Compounds were applied via bath perfusion in order from top to bottom.
as §1, §2

human KCNQ2/KvLR1 = molecular target: T4, human KCNQ2/KvLR1 (Homo sapiens, UniProt O43526, DEL509-509/N780T); type: cell-based
T4 construct: The full-length human KCNQ2 and KCNQ3 cDNAs were subcloned into a Xenopus expression vector and cRNA was generated by in vitro transcription; expressed in transfected cells; host or cells: Xenopus laevis oocytes (cRNA injection)
Experimental: Superimposed currents were recorded during 1 second steps to +30 mV, from −80 mV, during the same experiment. Compounds were applied via bath perfusion in order from top to bottom. The bath was perfused with control solution for 5 minutes, or until effects reversed completely, between compounds.
Inhibitors of various potassium channels present in brain and other tissues were used to investigate the pharmacology of KCNQ2/KvLR1.
as §1, §2

murine KCNQ2/KvLR1 = molecular target: T5, murine KCNQ2/KvLR1 (Mus musculus, UniProt Q9Z351, DEL481-481/H600Q/P326Q); assay: murine KCNQ2/KvLR1-mediated whole-cell currents in Xenopus oocytes, 2-electrode voltage clamp; type: cell-based; conditions: for effect on murine KCNQ2-mediated currents: concentration not given
T5 construct: Also disclosed is a full-length murine cDNA clone of KCNQ2 (murine KvLR1); expressed in transfected cells; host or cells: Xenopus oocytes (cRNA injection)
Experimental: FIGS. 15A and 15B show electrophysiology characterization of mouse KCNQ2/KvLR1-mediated whole-cell currents expressed in Xenopus oocytes.
To test for functional expression, cRNA was prepared from the murine KCNQ2/KvLR1 gene and injected into Xenopus oocytes. In a two-electrode voltage clamp, a family of outward currents were generated in murine KCNQ2/KvLR1 cRNA-injected oocytes (n>20). After a minimum of 48 hours, currents qualitatively and quantitatively different than native currents generated with identical protocols in water injected or uninjected control cells (representing Ca^2+-activated chloride currents and other native currents) (FIG. 15). […] Similar currents were obtained from CHO cells stably expressing murine KCNQ2 and recorded using patch-clamp techniques. Single channel conductances were estimated to be 24-30 pS in symmetrical 140 mM potassium. (FIG. 22).
The murine KCNQ2/KvLR1 cDNAs were linearized with the restriction enzyme NotI and in vitro transcribed using the mMessage mMachine T7 RNA polymerase kit according to the manufacturer's instructions (Ambion, Austin, Tex.). The cRNAs were solubilized in RNase-free water, and stored at −70° C. at a concentration of 1.0 μg/μl. Frog oocytes were prepared and injected using standard techniques (Colman, 1984). In murine KvLR1 expression experiments, each oocyte was injected with approximately 35-40 nl of the cRNA. Following injection, oocytes were maintained at 17° C., in ND96 medium consisting of (in mM): NaCl, 90; KCl, 1.0; CaCl2, 1.0; MgCl2, 1.0; HEPES, 5.0; pH 7.5. Horse serum and penicillin/streptomycin, both 5% of final volume, were added as supplements to the incubation medium. Electrophysiological recording commenced 2-6 days following cRNA injection. Prior to the start of an experiment oocytes were placed in a recording chamber and incubated in Modified Barth's Solution (MBS) consisting of (in mM): NaCl, 88; NaHCO3, 2.4; KCl, 1.0; HEPES, 10; MgSO4, 0.82; Ca(NO3)2, 0.33; CaCl2, 0.41; pH 7.5. Oocytes were impaled with electrodes (1-2 MΩ) and standard 2-electrode voltage clamp techniques were employed to record whole-cell membrane currents (Stuhmer, 1992; TEC 200, Dagan Instruments). Voltage-clamp protocols typically consisted of a series of voltage steps 100-500 ms duration, in +10 mV steps from a holding potential of −60 mV to −90 mV to a maximal potential of +40 mV to +50 mV; records were digitized at 5 kHz and stored on a computer using pClamp 6.0 software (Axon Instruments), and analyzed using ClampFit or AxoGraph software (Axon Instruments).

minK+human KCNQ2/KvLR1 = minK+human KCNQ2/KvLR1 (Homo sapiens, UniProt O43526); conditions: 1 mM, steps to +40 mV from −80 mV
Chain of minK+human KCNQ2/KvLR1 (O43526 whole entry): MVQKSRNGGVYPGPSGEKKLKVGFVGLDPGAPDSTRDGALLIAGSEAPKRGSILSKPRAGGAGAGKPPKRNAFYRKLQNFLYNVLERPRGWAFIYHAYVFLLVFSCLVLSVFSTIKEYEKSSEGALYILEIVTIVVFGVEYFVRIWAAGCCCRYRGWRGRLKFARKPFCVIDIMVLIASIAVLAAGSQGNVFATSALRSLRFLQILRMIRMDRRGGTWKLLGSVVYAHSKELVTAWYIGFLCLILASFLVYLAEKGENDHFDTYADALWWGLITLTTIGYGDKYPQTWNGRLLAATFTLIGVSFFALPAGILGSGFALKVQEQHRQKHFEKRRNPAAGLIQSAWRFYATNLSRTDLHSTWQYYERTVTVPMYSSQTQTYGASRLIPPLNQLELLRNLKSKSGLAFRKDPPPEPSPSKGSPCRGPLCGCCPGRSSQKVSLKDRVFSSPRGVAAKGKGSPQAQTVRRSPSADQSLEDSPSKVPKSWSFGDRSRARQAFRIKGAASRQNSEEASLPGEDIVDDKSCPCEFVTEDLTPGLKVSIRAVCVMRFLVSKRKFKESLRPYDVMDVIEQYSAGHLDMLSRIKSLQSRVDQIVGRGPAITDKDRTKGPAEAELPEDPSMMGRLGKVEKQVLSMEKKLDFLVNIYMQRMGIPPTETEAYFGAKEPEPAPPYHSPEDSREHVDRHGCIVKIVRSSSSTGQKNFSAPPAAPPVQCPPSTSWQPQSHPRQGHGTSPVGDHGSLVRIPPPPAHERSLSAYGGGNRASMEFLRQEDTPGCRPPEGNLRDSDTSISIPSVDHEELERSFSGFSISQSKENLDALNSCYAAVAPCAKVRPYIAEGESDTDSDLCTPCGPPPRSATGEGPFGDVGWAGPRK
Experimental: as §1

KCNQ1/KvLQT1 [2] = molecular target: T1, KCNQ1/KvLQT1; assay: KCNQ1/KvLQT1 currents (comparison); type: cell-based; conditions: no citation, concentration not given
[3] = 10 μM, steps to +30 mV from −80 mV

Molecule: Nc1ccncc1 [4-AP, 4-aminopyridine]
- inhibition of KCNQ1/KvLQT1 currents (KCNQ1/KvLQT1 [1]): do not inhibit
- effect on KCNQ3 current (KCNQ3; 2 mM): no effect
- sensitivity of KCNQ2+KCNQ3 current to inhibition (KCNQ2+KCNQ3; 2 mM): not
- effect on KCNQ2/KvLR1 current (human KCNQ2/KvLR1; 0.2 mM): Neither E-4031 nor 4-AP produced significant effects

Molecule: Cc1cccc(CCN2CCC(C(=O)c3ccc(NS(C)(=O)=O)cc3)CC2)n1 [E-4031]
- inhibition of KCNQ1/KvLQT1 currents (KCNQ1/KvLQT1 [1]): do not inhibit
- effect on KCNQ3 current (KCNQ3; 10 μM): no effect
- sensitivity of KCNQ2+KCNQ3 current to inhibition (KCNQ2+KCNQ3; 10 μM): did not inhibit
- effect on KCNQ2/KvLR1 current (human KCNQ2/KvLR1; [3]): Neither E-4031 nor 4-AP produced significant effects

Molecule: CC[N+](CC)(CC)CC [TEA, tetraethylammonium]
- block of murine KCNQ2/KvLR1-mediated currents (murine KCNQ2/KvLR1): blocked
- effect on KCNQ3 current (KCNQ3): little inhibition
- sensitivity of KCNQ2+KCNQ3 current to inhibition (KCNQ2+KCNQ3): weakly sensitive to inhibition
- effect on KCNQ2 current (human KCNQ2/KvLR1): strongly inhibited
- effect on minK+human KCNQ2/KvLR1 currents (minK+human KCNQ2/KvLR1): partially inhibited

Molecule: CCCCCCC[N+](CC)(CC)CCCCc1ccc(Cl)cc1 [clofilium]
- inhibition of KCNQ1/KvLQT1 currents (KCNQ1/KvLQT1 [1]): strong inhibitor
- block of murine KCNQ2-mediated currents (murine KCNQ2/KvLR1; 20 μM, depolarized from −80 to +40): partially block
- reduction of KCNQ3 current from control (KCNQ3; 10 μM): 30%
- sensitivity of KCNQ2+KCNQ3 current to inhibition (KCNQ2+KCNQ3; 10 μM): weakly sensitive to inhibition
- effect on KCNQ2/KvLR1 current (human KCNQ2/KvLR1; [3]): little effect

Molecule: Charybdotoxin
- effect on KCNQ1/KvLQT1 (KCNQ1/KvLQT1 [2]): no effect
- effect on murine KCNQ2-mediated currents (murine KCNQ2/KvLR1): no significant effect
- effect on KCNQ3 current (KCNQ3; 100 nM): no effect
- sensitivity of KCNQ2+KCNQ3 current to inhibition (KCNQ2+KCNQ3; 100 nM): not
- effect on KCNQ2/KvLR1 current (human KCNQ2/KvLR1; 0.1 mM (concentration tested)): did not inhibit

Molecule: iberiotoxin: specific K+ channel blocking toxin (QFTDVDCSVSKECWSVCKDLFGVDRGKCMGKKCRCYQ)
- effect on murine KCNQ2-mediated currents (murine KCNQ2/KvLR1): no significant effect

Molecule: α-dendrotoxin (QPRRKLCILHRNPGRCYDKIPAFYYNQKKKQCERFDWSGCGGNSNRFKTIEECRRTCIG)
- effect on murine KCNQ2-mediated currents (murine KCNQ2/KvLR1): no significant effect
